{
  "source": "patent EP0001618A2",
  "about": "“Process for the preparation of di-N-oxides and their pharmaceutical use” (BAYER AG, priority 1977, dated 1979)",
  "test_system": "E. coli Neumann",
  "experiment": "Subcutaneous ED100 in infected mice",
  "format": "in vivo",
  "settings": "Escherichia coli, sc, mice infected with E. coli Neumann, mg/kg body weight, ED100 = dose that cures 100 % of the animals, read-out: Subkutane ED100 bei infizierten Mäusen",
  "data": [
    {"smiles": "Cc1c(C(=O)N2CN(C)CCN(C)C2)[n+]([O-])c2ccccc2[n+]1[O-]", "note": "[Beispiel 1]", "values": [
      {"measurement": "ED100", "result": "5 to 10", "unit": "mg/kg"}
    ]}
  ]
}
